Values quoted from earlier work, collected in publication PMC10323144, “Garbage in, garbage out: how reliable training data improved a virtual screening approach against SARS-CoV-2 MPro” (Frontiers in Pharmacology, 2023).
Square brackets hold non-standard residues; d marks the D form. Peptide text beside a SMILES is read from it. * marks the point of attachment. Cbz = O=C(OCc1ccccc1)*; Nva = CCC[CH](N)C(=O)O

Tested on: MPro
Conditions: compiled from peer-reviewed sources (287 compounds) ref the 18 original articles; cited from earlier work

Compound	Class (MPro activity class)
O=C(Cc1cccc(Cl)c1)Nn1cnc2ccccc21 [JAN-GHE-5a013bed-2]	1 (Compounds with IC50 < 10 µM or with a percentage of enzyme inhibition >50% at 10 µM were labelled as ACTIVE)
O=C(Cc1cccc(Cl)c1)Nn1cnc2ccccc2c1=O [JAN-GHE-5a013bed-3]	1 (Compounds with IC50 < 10 µM or with a percentage of enzyme inhibition >50% at 10 µM were labelled as ACTIVE)
Cc1ccncc1NC(=O)Cc1cccc(Br)c1 [JAN-GHE-83b26c96-12]	0 (compounds with IC50 > 20 μM, percentage inhibition <80% at 20 µM or 50 μM, or percentage enzyme inhibition <50% at 10 µM were labelled as INACTIVE)
O=C(Nc1cccnc1)N(CCC1CCCCC1)c1cccc(Cl)c1 [JOR-UNI-2fc98d0b-12]	1 (Compounds with IC50 < 10 µM or with a percentage of enzyme inhibition >50% at 10 µM were labelled as ACTIVE)
O=C(Nc1cnn2ccc(N3CCC[C@@H]3c3cc(F)ccc3F)nc12)N1CC[C@H](O)C1 [LAROTRECTINIB]	0 (compounds with IC50 > 20 μM, percentage inhibition <80% at 20 µM or 50 μM, or percentage enzyme inhibition <50% at 10 µM were labelled as INACTIVE)
Cc1nn(-c2ccccc2)c(Nc2cccc(C(F)(F)F)c2)c1NS(C)(=O)=O [LASSBio-428 (10)]	0 (compounds with IC50 > 20 μM, percentage inhibition <80% at 20 µM or 50 μM, or percentage enzyme inhibition <50% at 10 µM were labelled as INACTIVE)
O=C(NN=Cc1c[nH]cn1)C1CCCCC1 [LASSBio-1600 (15)]	0 (compounds with IC50 > 20 μM, percentage inhibition <80% at 20 µM or 50 μM, or percentage enzyme inhibition <50% at 10 µM were labelled as INACTIVE)
O=C(CNc1c(-c2ccccc2)nc2ccccn12)NN=Cc1cccc2ccccc12 [LASSBio-1615 (11)]	0 (compounds with IC50 > 20 μM, percentage inhibition <80% at 20 µM or 50 μM, or percentage enzyme inhibition <50% at 10 µM were labelled as INACTIVE)
Cc1[nH]c2ccccc2c1C=NN(C)C(=O)c1ccc2c(c1)OCO2 [LASSBio-1649 (13)]	0 (compounds with IC50 > 20 μM, percentage inhibition <80% at 20 µM or 50 μM, or percentage enzyme inhibition <50% at 10 µM were labelled as INACTIVE)
CN1C(=O)C(=NNC(=O)c2ccc3c(c2)OCO3)c2ccccc21 [LASSBio-1652 (16)]	0 (compounds with IC50 > 20 μM, percentage inhibition <80% at 20 µM or 50 μM, or percentage enzyme inhibition <50% at 10 µM were labelled as INACTIVE)
Cc1csc(C(=O)NN=Cc2cccnc2)c1N [LASSBio-1891 (14)]	0 (compounds with IC50 > 20 μM, percentage inhibition <80% at 20 µM or 50 μM, or percentage enzyme inhibition <50% at 10 µM were labelled as INACTIVE)
O=C(Nc1ccccc1)Nc1cnc2ccc([N+](=O)[O-])cc2n1 [LASSBio-1962 (8)]	0 (compounds with IC50 > 20 μM, percentage inhibition <80% at 20 µM or 50 μM, or percentage enzyme inhibition <50% at 10 µM were labelled as INACTIVE)
CC(=O)ON=C1C(=O)N(Cc2cc(Cl)ccc2Cl)c2ccc(Cl)cc21 [LDN-57444]	0 (compounds with IC50 > 20 μM, percentage inhibition <80% at 20 µM or 50 μM, or percentage enzyme inhibition <50% at 10 µM were labelled as INACTIVE)
O=C(CCl)N1CCN(S(=O)(=O)c2c(F)cccc2F)CC1 [LON-WEI-8f408cad-2]	1 (Compounds with IC50 < 10 µM or with a percentage of enzyme inhibition >50% at 10 µM were labelled as ACTIVE)
O=C(CCl)N1CCN(S(=O)(=O)c2cccs2)CC1 [LON-WEI-8f408cad-3]	1 (Compounds with IC50 < 10 µM or with a percentage of enzyme inhibition >50% at 10 µM were labelled as ACTIVE)
O=C(CCl)N1CCN(S(=O)(=O)c2cccc(F)c2)CC1 [LON-WEI-8f408cad-4]	1 (Compounds with IC50 < 10 µM or with a percentage of enzyme inhibition >50% at 10 µM were labelled as ACTIVE)
C=CC(=O)N(c1ccc(C(C)(C)C)cc1)C(C(=O)Nc1ccc(OC)cc1OC)c1cccnc1 (stereo not drawn) [LON-WEI-adc59df6-45]	1 (Compounds with IC50 < 10 µM or with a percentage of enzyme inhibition >50% at 10 µM were labelled as ACTIVE)
C=CC(=O)N(c1ccc(C(C)(C)C)cc1)C(C(=O)NCCc1cccc(F)c1)c1cccnc1 (stereo not drawn) [LON-WEI-adc59df6-47]	1 (Compounds with IC50 < 10 µM or with a percentage of enzyme inhibition >50% at 10 µM were labelled as ACTIVE)
C=CC(=O)N(c1ccc(C(C)(C)C)cc1)C(C(=O)NCCc1cccc(F)c1)c1cncc(C#N)c1 (stereo not drawn) [LON-WEI-babf2c61-3]	1 (Compounds with IC50 < 10 µM or with a percentage of enzyme inhibition >50% at 10 µM were labelled as ACTIVE)
CS(=O)(=O)c1ncc(Cl)c(C(=O)Nc2ccccc2Cc2ccccc2)n1 [LON-WEI-ff7b210a-4]	1 (Compounds with IC50 < 10 µM or with a percentage of enzyme inhibition >50% at 10 µM were labelled as ACTIVE)
CCOC(=O)c1nc(S(C)(=O)=O)ncc1Cl [LON-WEI-ff7b210a-5]	1 (Compounds with IC50 < 10 µM or with a percentage of enzyme inhibition >50% at 10 µM were labelled as ACTIVE)

Compound	Class (MPro activity class)
O=C(O)c1nn(Cc2ccc(Cl)cc2Cl)c2ccccc12 [LONIDAMINE]	0 (compounds with IC50 > 20 μM, percentage inhibition <80% at 20 µM or 50 μM, or percentage enzyme inhibition <50% at 10 µM were labelled as INACTIVE)
CC(NC(=O)C(O)c1cc(F)cc(F)c1)C(=O)NC1C(=O)N(C)c2ccccc2-c2ccccc21 (stereo not drawn) [LY411575]	0 (compounds with IC50 > 20 μM, percentage inhibition <80% at 20 µM or 50 μM, or percentage enzyme inhibition <50% at 10 µM were labelled as INACTIVE)
C[C@@]1(c2cc(-c3cncnc3)c(F)cc2F)CCSC(N)=N1 [LY2811376]	0 (compounds with IC50 > 20 μM, percentage inhibition <80% at 20 µM or 50 μM, or percentage enzyme inhibition <50% at 10 µM were labelled as INACTIVE)
CC(=O)N[C@@H](CC(C)C)C(=O)N[C@@H](CC(C)C)C(=O)N[C@H](C=O)CCCNC(=N)N [Leupeptin]	0 (compounds with IC50 > 20 μM, percentage inhibition <80% at 20 µM or 50 μM, or percentage enzyme inhibition <50% at 10 µM were labelled as INACTIVE)
CC#CCn1c(N2CCCC(N)C2)nc2c1c(=O)n(Cc1nc(C)c3ccccc3n1)c(=O)n2C (stereo not drawn) [Linafliptin]	0 (compounds with IC50 > 20 μM, percentage inhibition <80% at 20 µM or 50 μM, or percentage enzyme inhibition <50% at 10 µM were labelled as INACTIVE)
COC(=O)C1=CO[C@@H](O[C@@H]2O[C@H](CO)[C@@H](O)[C@H](O)[C@H]2O)[C@@H]2[C@@H](C)[C@@H](O)C[C@H]12 [Loganin]	0 (compounds with IC50 > 20 μM, percentage inhibition <80% at 20 µM or 50 μM, or percentage enzyme inhibition <50% at 10 µM were labelled as INACTIVE)
CC(C)(C)C#Cc1cc(N(C(=O)[C@H]2CC[C@H](C)CC2)[C@H]2CC[C@H](O)CC2)c(C(=O)O)s1 [Lomibuvir]	0 (compounds with IC50 > 20 μM, percentage inhibition <80% at 20 µM or 50 μM, or percentage enzyme inhibition <50% at 10 µM were labelled as INACTIVE)
CC(C)CCNC(=O)C(CC(C)C)NC(=O)C1OC1C(=O)O (stereo not drawn) [Loxistatin Acid]	0 (compounds with IC50 > 20 μM, percentage inhibition <80% at 20 µM or 50 μM, or percentage enzyme inhibition <50% at 10 µM were labelled as INACTIVE)
O=c1cc(-c2ccc(O)c(O)c2)oc2cc(O[C@@H]3O[C@H](CO)[C@@H](O)[C@H](O)[C@H]3O)cc(O)c12 [Luteoloside]	0 (compounds with IC50 > 20 μM, percentage inhibition <80% at 20 µM or 50 μM, or percentage enzyme inhibition <50% at 10 µM were labelled as INACTIVE)
O=C(CCl)N1CCN(S(=O)(=O)C2=CC[SH]=C2)CC1 [MAK-UNK-d4768348-1]	1 (Compounds with IC50 < 10 µM or with a percentage of enzyme inhibition >50% at 10 µM were labelled as ACTIVE)
COc1ccc(C2CC(c3cccs3)=NN2C(=O)CCl)cc1OC (stereo not drawn) [MAT-POS-916a2c5a-1]	1 (Compounds with IC50 < 10 µM or with a percentage of enzyme inhibition >50% at 10 µM were labelled as ACTIVE)
COc1ccccc1OCCNC(=O)c1cc(=O)[nH]c2ccccc12 [MAT-POS-916a2c5a-2]	1 (Compounds with IC50 < 10 µM or with a percentage of enzyme inhibition >50% at 10 µM were labelled as ACTIVE)
Cc1cc(C)c(C)c(S(=O)(=O)N2CCN(C(=O)c3cc(=O)[nH]c4ccccc34)CC2)c1C [MAT-POS-916a2c5a-3]	1 (Compounds with IC50 < 10 µM or with a percentage of enzyme inhibition >50% at 10 µM were labelled as ACTIVE)
O=C(CCl)N1CCN(S(=O)(=O)c2ccsc2)CC1 [MAT-POS-ee51dedd-2]	1 (Compounds with IC50 < 10 µM or with a percentage of enzyme inhibition >50% at 10 µM were labelled as ACTIVE)
CC1CN(Cc2cccc(Cl)c2)CCN1C(=O)CCl (stereo not drawn) [MED-COV-4280ac29-13]	1 (Compounds with IC50 < 10 µM or with a percentage of enzyme inhibition >50% at 10 µM were labelled as ACTIVE)
O=C(CCl)N1CCN(Cc2cccc(Cl)c2)CC1 [MED-COV-4280ac29-15]	1 (Compounds with IC50 < 10 µM or with a percentage of enzyme inhibition >50% at 10 µM were labelled as ACTIVE)
COc1ccc(C2CC(c3ccccc3)=NN2C(=O)CCl)cc1OC (stereo not drawn) [MED-COV-4280ac29-30]	1 (Compounds with IC50 < 10 µM or with a percentage of enzyme inhibition >50% at 10 µM were labelled as ACTIVE)
O=C(CCl)N1CCN(Cc2cccc3ccccc23)CC1 [MED-COV-4280ac29-31]	1 (Compounds with IC50 < 10 µM or with a percentage of enzyme inhibition >50% at 10 µM were labelled as ACTIVE)
COCc1cc(Cl)cc(CN2CCN(C(=O)CCl)CC2)c1 [MED-COV-4280ac29-33]	1 (Compounds with IC50 < 10 µM or with a percentage of enzyme inhibition >50% at 10 µM were labelled as ACTIVE)
COCCc1ccc(Cl)cc1CN1CCN(C(=O)CCl)CC1 [MED-COV-4280ac29-37]	1 (Compounds with IC50 < 10 µM or with a percentage of enzyme inhibition >50% at 10 µM were labelled as ACTIVE)
CCCC(C=O)NC(=O)C(CC(C)C)NC(=O)C(CC(C)C)NC(=O)OCc1ccccc1 (stereo not drawn) [MG-115] (Cbz-Leu-Leu-[Nva]-aldehyde; configuration not given here)	1 (Compounds with IC50 < 10 µM or with a percentage of enzyme inhibition >50% at 10 µM were labelled as ACTIVE)
